Assays:
R11-AMACH smooth pigweed = assay: Greenhouse screen of ALS-inhibiting herbicides on resistant smooth pigweed biotype; assay type: in vivo, Amaranthus hybridus L.; settings: 3 WAT; for Biomass Reduction: compared to untreated plant biomass; for Biomass: plant dry weight; for Visual Control: scale 0-99%
Excerpt: (§1) Seeds from a smooth pigweed (Aniaranthus hybridus L.) population (R11-AMACH) were collected from a field in southeastern Pennsylvania where extreme ALS-inhibitor herbicide selection pressure was imposed over a several year period within continuous soybean production. R11-AMACH was selected naturally with ALS-inhibiting herbicides representative of the SU, IMI, and TP herbicide chemistries.
(§2) To establish levels and patterns of ALS resistance, R11-AMACH and an ALS susceptible smooth pigweed biotype (S-AMACH) were screened in the greenhouse with various rates of the ALS-inhibiting herbicides, chlorimuron (SU), thifensulfuron (SU), imazethapyr (IMI), pyrithiobac (POB), and cloransulam-methyl (TP). Rates evaluated were based on a log10 scale that included 0, 1/100×, 1/10×, 1×, 10×, and 100×, where 1× corresponds to the normal use rate in the field. R11-AMACH responded differently to the rate increase as compared to S-AMACH. […] Visual control, height, biomass, and biomass reduction are presented separately for chlorimuron (Table 3), thifensulfuron (Table 4), imazethapyr (Table 5), pyrithiobac (Table 6), and cloransulam (Table 7). Evaluations and measurements were recorded 3 weeks after herbicide treatment (WAT). Visual control was based on a scale of 0-99%, where 0% represents no control and 99% represents complete control. Biomass represents plant dry weights recorded several days after plants were harvested. Biomass reduction was calculated based on the amount of biomass reduced by herbicide treatment compared to the untreated plant biomass.

S-AMACH smooth pigweed = assay: Greenhouse screen of ALS-inhibiting herbicides on susceptible smooth pigweed biotype; assay type: in vivo, Amaranthus hybridus L.; settings: 3 WAT; for Biomass Reduction: compared to untreated plant biomass; for Biomass: plant dry weight; for Visual Control: scale 0-99%
Excerpt: as §1, §2

[1] = rate 1/100× (1× = normal use rate in the field)

Row | Structure (SMILES) | Height (R11-AMACH smooth pigweed; rate 1/10×) [cm] | Biomass Reduction (R11-AMACH smooth pigweed; rate 1/10×) [%] | Biomass (R11-AMACH smooth pigweed; rate 1/10×) [g] | Visual Control (R11-AMACH smooth pigweed; rate 1/10×) [%] | Visual Control (R11-AMACH smooth pigweed; [1]) [%] | Height (R11-AMACH smooth pigweed; rate 1/100×) [cm] | Biomass Reduction (R11-AMACH smooth pigweed; rate 1/100×) [%] | Biomass (R11-AMACH smooth pigweed; rate 1/100×) [g] | Visual Control (R11-AMACH smooth pigweed; rate 1× (normal use rate)) [%] | Height (R11-AMACH smooth pigweed; rate 1×) [cm] | Biomass Reduction (R11-AMACH smooth pigweed; rate 1×) [%] | Biomass (R11-AMACH smooth pigweed; rate 1×) [g] | Height (R11-AMACH smooth pigweed; rate 10×) [cm] | Biomass Reduction (R11-AMACH smooth pigweed; rate 10×) [%] | Biomass (R11-AMACH smooth pigweed; rate 10×) [g] | Visual Control (R11-AMACH smooth pigweed; rate 10×) [%] | Height (R11-AMACH smooth pigweed; rate 100×) [cm] | Biomass Reduction (R11-AMACH smooth pigweed; rate 100×) [%] | Biomass (R11-AMACH smooth pigweed; rate 100×) [g] | Visual Control (R11-AMACH smooth pigweed; rate 100×) [%] | other results
1 | COc1cc(Cl)nc(NC(=O)NS(=O)(=O)c2ccccc2C(=O)O)n1 [chlorimuron, 2-[[[[(4-chloro-6-methoxy-2-pyrimidinyl)-amino]carbonyl]amino]-sulfonyl]benzoic acid] | 26.5 | 3.7 | 3.66 | 6 | 5 | 23.5 | 10.0 | 3.42 | 15 | 21.8 | 3.5 | 3.67 | 23.5 | 17.1 | 3.15 | 18 | 14.8 | 56.8 | 1.64 | 39 | Height (S-AMACH smooth pigweed; rate 1/10×): 14.3 cm; Biomass Reduction (S-AMACH smooth pigweed; rate 1/10×): 52.0%; Biomass (S-AMACH smooth pigweed; rate 1/10×): 1.65 g; Visual Control (S-AMACH smooth pigweed; rate 1/10×): 20%; Height (S-AMACH smooth pigweed; rate 1/100×): 27.8 cm; Biomass Reduction (S-AMACH smooth pigweed; rate 1/100×): 30.9%; Biomass (S-AMACH smooth pigweed; rate 1/100×): 2.37 g; Visual Control (S-AMACH smooth pigweed; rate 1/100×): 9%; Visual Control (S-AMACH smooth pigweed; rate 1× (normal use rate)): 81%; Height (S-AMACH smooth pigweed; rate 1×): 4.8 cm; Biomass Reduction (S-AMACH smooth pigweed; rate 1×): 95.8%; Biomass (S-AMACH smooth pigweed; rate 1×): 0.14 g; Height (S-AMACH smooth pigweed; rate 10×): 1.0 cm; Biomass Reduction (S-AMACH smooth pigweed; rate 10×): 98.6%; Biomass (S-AMACH smooth pigweed; rate 10×): 0.05 g; Visual Control (S-AMACH smooth pigweed; rate 10×): 99%; Height (S-AMACH smooth pigweed; rate 100×): 1.3 cm; Biomass Reduction (S-AMACH smooth pigweed; rate 100×): 96.7%; Biomass (S-AMACH smooth pigweed; rate 100×): 0.11 g; Visual Control (S-AMACH smooth pigweed; rate 100×): 99%
2 | CCOc1nc(F)cc2nc(S(=O)(=O)Nc3c(Cl)cccc3C(=O)OC)nn12 [cloransulammethyl] | 34.5 | 24.7 | 8.16 | 23 | 0 | 47.8 | 0.5 | 10.78 | 16 | 37.6 | 30.8 | 7.49 | 32.0 | 40.5 | 6.44 | 39 | 12.2 | 75.3 | 2.68 | 63 | Height (S-AMACH smooth pigweed; rate 1/10×): 3.6 cm; Biomass Reduction (S-AMACH smooth pigweed; rate 1/10×): 97.1%; Biomass (S-AMACH smooth pigweed; rate 1/10×): 0.25 g; Visual Control (S-AMACH smooth pigweed; rate 1/10×): 91%; Height (S-AMACH smooth pigweed; rate 1/100×): 0.7 cm; Biomass Reduction (S-AMACH smooth pigweed; rate 1/100×): 99.8%; Biomass (S-AMACH smooth pigweed; rate 1/100×): 0.02 g; Visual Control (S-AMACH smooth pigweed; rate 1/100×): 97%; Visual Control (S-AMACH smooth pigweed; rate 1× (normal use rate)): 96%; Height (S-AMACH smooth pigweed; rate 1×): 1.3 cm; Biomass Reduction (S-AMACH smooth pigweed; rate 1×): 99.1%; Biomass (S-AMACH smooth pigweed; rate 1×): 0.08 g; Height (S-AMACH smooth pigweed; rate 10×): 0.0 cm; Biomass Reduction (S-AMACH smooth pigweed; rate 10×): 100.0%; Biomass (S-AMACH smooth pigweed; rate 10×): 0.00 g; Visual Control (S-AMACH smooth pigweed; rate 10×): 99%; Height (S-AMACH smooth pigweed; rate 100×): 0.0 cm; Biomass Reduction (S-AMACH smooth pigweed; rate 100×): 100.0%; Biomass (S-AMACH smooth pigweed; rate 100×): 0.00 g; Visual Control (S-AMACH smooth pigweed; rate 100×): 99%
3 | CCc1cnc(C2=NC(C)(C(C)C)C(=O)N2)c(C(=O)O)c1 (centres unmarked) [imazethapyr, 2-[4,5-dihydro-4-methyl-4-(1-methylethyl)-5-oxo-1H-imidazol-2-yl]-5-ethyl-3-pyridinecarboxylic acid] | 28.0 | 21.1 | 3.00 | 9 | 2 | 32.8 | −8.2 | 4.11 | 16 | 20.3 | 31.0 | 2.62 | 6.8 | 86.8 | 0.50 | 62 | 3.3 | 96.1 | 0.15 | 95 | Height (S-AMACH smooth pigweed; rate 1/10×): 10.3 cm; Biomass Reduction (S-AMACH smooth pigweed; rate 1/10×): 81.6%; Biomass (S-AMACH smooth pigweed; rate 1/10×): 0.63 g; Visual Control (S-AMACH smooth pigweed; rate 1/10×): 58%; Height (S-AMACH smooth pigweed; rate 1/100×): 25.3 cm; Biomass Reduction (S-AMACH smooth pigweed; rate 1/100×): 42.3%; Biomass (S-AMACH smooth pigweed; rate 1/100×): 1.98 g; Visual Control (S-AMACH smooth pigweed; rate 1/100×): 12%; Visual Control (S-AMACH smooth pigweed; rate 1× (normal use rate)): 97%; Height (S-AMACH smooth pigweed; rate 1×): 2.3 cm; Biomass Reduction (S-AMACH smooth pigweed; rate 1×): 98.3%; Biomass (S-AMACH smooth pigweed; rate 1×): 0.06 g; Height (S-AMACH smooth pigweed; rate 10×): 0.3 cm; Biomass Reduction (S-AMACH smooth pigweed; rate 10×): 97.1%; Biomass (S-AMACH smooth pigweed; rate 10×): 0.10 g; Visual Control (S-AMACH smooth pigweed; rate 10×): 99%; Height (S-AMACH smooth pigweed; rate 100×): 2.3 cm; Biomass Reduction (S-AMACH smooth pigweed; rate 100×): 98.3%; Biomass (S-AMACH smooth pigweed; rate 100×): 0.06 g; Visual Control (S-AMACH smooth pigweed; rate 100×): 95%
4 | COc1cc(OC)nc(Sc2cccc(Cl)c2C(=O)O)n1 [pyrithiobac, 2-chloro-6-[(4,6-dimethoxy-2-pyrimidinyl)thio]benzoic acid] | 22.0 | 36.3 | 2.42 | 21 | 7 | 26.5 | 26.8 | 2.78 | 30 | 17.8 | 37.4 | 2.38 | 11.0 | 71.8 | 1.07 | 48 | 2.5 | 98.2 | 0.07 | 97 | Height (S-AMACH smooth pigweed; rate 1/10×): 8.8 cm; Biomass Reduction (S-AMACH smooth pigweed; rate 1/10×): 89.2%; Biomass (S-AMACH smooth pigweed; rate 1/10×): 0.37 g; Visual Control (S-AMACH smooth pigweed; rate 1/10×): 59%; Height (S-AMACH smooth pigweed; rate 1/100×): 21.8 cm; Biomass Reduction (S-AMACH smooth pigweed; rate 1/100×): 49.6%; Biomass (S-AMACH smooth pigweed; rate 1/100×): 1.73 g; Visual Control (S-AMACH smooth pigweed; rate 1/100×): 16%; Visual Control (S-AMACH smooth pigweed; rate 1× (normal use rate)): 99%; Height (S-AMACH smooth pigweed; rate 1×): 2.0 cm; Biomass Reduction (S-AMACH smooth pigweed; rate 1×): 98.0%; Biomass (S-AMACH smooth pigweed; rate 1×): 0.07 g; Height (S-AMACH smooth pigweed; rate 10×): 1.8 cm; Biomass Reduction (S-AMACH smooth pigweed; rate 10×): 96.5%; Biomass (S-AMACH smooth pigweed; rate 10×): 0.12 g; Visual Control (S-AMACH smooth pigweed; rate 10×): 99%; Height (S-AMACH smooth pigweed; rate 100×): 0.5 cm; Biomass Reduction (S-AMACH smooth pigweed; rate 100×): 98.8%; Biomass (S-AMACH smooth pigweed; rate 100×): 0.04 g; Visual Control (S-AMACH smooth pigweed; rate 100×): 99%
5 | COc1nc(C)nc(NC(=O)NS(=O)(=O)c2ccsc2C(=O)O)n1 [thifensulfuron, 3-[[[[(4-methoxy-6-methyl-1,3,5-triazin-2-yl)amino]carbonyl]-amino]sulfonyl]-2-thiophenecarboxylic acid] | 32.5 | −17.1 | 4.45 | 9 | 4 | 36.0 | −10.8 | 4.21 | 22 | 23.0 | 8.4 | 3.48 | 15.8 | 40.8 | 2.25 | 38 | 6.8 | 84.7 | 0.58 | 64 | Height (S-AMACH smooth pigweed; rate 1/10×): 11.0 cm; Biomass Reduction (S-AMACH smooth pigweed; rate 1/10×): 75.2%; Biomass (S-AMACH smooth pigweed; rate 1/10×): 0.85 g; Visual Control (S-AMACH smooth pigweed; rate 1/10×): 47%; Height (S-AMACH smooth pigweed; rate 1/100×): 25.0 cm; Biomass Reduction (S-AMACH smooth pigweed; rate 1/100×): 48.7%; Biomass (S-AMACH smooth pigweed; rate 1/100×): 1.76 g; Visual Control (S-AMACH smooth pigweed; rate 1/100×): 22%; Visual Control (S-AMACH smooth pigweed; rate 1× (normal use rate)): 98%; Height (S-AMACH smooth pigweed; rate 1×): 2.0 cm; Biomass Reduction (S-AMACH smooth pigweed; rate 1×): 98.0%; Biomass (S-AMACH smooth pigweed; rate 1×): 0.07 g; Height (S-AMACH smooth pigweed; rate 10×): 0.3 cm; Biomass Reduction (S-AMACH smooth pigweed; rate 10×): 98.8%; Biomass (S-AMACH smooth pigweed; rate 10×): 0.04 g; Visual Control (S-AMACH smooth pigweed; rate 10×): 99%; Height (S-AMACH smooth pigweed; rate 100×): 0.5 cm; Biomass Reduction (S-AMACH smooth pigweed; rate 100×): 99.1%; Biomass (S-AMACH smooth pigweed; rate 100×): 0.03 g; Visual Control (S-AMACH smooth pigweed; rate 100×): 99%

Source: patent publication US20060130172A1, “Gene encoding resistance to acetolactate synthase-inhibiting herbicides” (priority 2003, published 2006)
